{"source": "patent EP0388528B1", "about": "“Carboximidamide derivatives” (KIRIN BEER KABUSHIKI KAISHA, priority 1988, dated 1990)", "key": {"potassium channel": {"test_system": "potassium channel", "assay": "Potassium channel activating effect (86Rb efflux from rat thoracic aorta)", "conditions": "compound 10⁻⁴ M for 8 minutes, percent of the efflux before application", "protocol": "Male Wistar rats (weighing 250-350 g) were dehematized to death, and thoracic aortae were rapidly isolated. The aorta was opened along the longitudinal axis to prepare a flat sheet. The preparation was loaded with ⁸⁶Rb in the Krebs-Ringer solution which contained ⁸⁶Rb in the concentration of 10 µCi/ml and was gassed with 95% O₂ - 5% CO₂ at 37°C for 2 hours. The preparation was then transferred to a Krebs-Ringer solution not containing ⁸⁶Rb, and washed to remove excess radioactivity for 18 minutes by refreshing the solution every 2 minutes. Finally the preparation was placed into a Krebs-Ringer solution containing each compound (10⁻⁴ M) for 8 minutes.\nThe amount of ⁸⁶Rb efflux from the preparation in each period was determined with a γ-counter.\nThe increment in efflux rate during the application of the compound was expressed as percent of the efflux before the application of the compound."}, "[1]": {"test_system": "spontaneous hypertensive rats (SHR)", "assay": "Hypotensive effect on spontaneous hypertensive rats (orally)", "assay_type": "in vivo", "conditions": "systolic pressure 2 hours after administration", "protocol": "Systolic pressure of the rats fasted for 24 hour was measured by using the tail cuff method before and 2 hours after administration of the compound. The compound was dissolved in a mixed solvent of polyethylene glycol 200 : physiological saline = 1:1. The control group was administered the solvent alone. The change in blood pressure was expressed as percent of the blood pressure before the administration of the compound in respective groups."}, "beagles": {"test_system": "beagles", "assay": "Hemodynamic profile in beagles (intravenously)", "assay_type": "in vivo", "conditions": "peak percent change from pretreatment", "protocol": "Hemodynamic profile of the compound of the present invention was investigated in beagles anesthetized with pentobarbital (30 mg/kg, intravenously) [test compound: N-cyano-N′-(2-nitroxyethyl)-3-pyridinecarboximidamide (compound (13))]. The thorax was opened under artificial respiration. After administering heparin in an amount of 500 units/kg, a Moravitz's cannula was introduced into the coronary sinus via the right atrium. The coronary sinus outflow was returned to the right external jagular vein. The coronary sinus outflow was measured by an electromagnetic flowmeter (MFU-2100, manufactured by Nihon Kohden) connected to the Moravitz's cannula. A cannula was inserted into the aortic arch through the subclavian artery to measure aortic blood pressure. The aortic blood pressure was measured with a pressure transducer (Nihon Kohden, TP-200T). Heart rate was monitored with a heart rate counter with R waves of electrocardiogram. All parameters were recorded on a thermosensitive recorder (WT-685G, manufactured by Nihon Kohden).\nThe compound was administered through the cannula inserted into the right femoral vein. Nicorandil was used as a control. As for respective measurement items, peak changes were expressed as percent change from the pretreatment values of the compound (13) or nicorandil."}, "isolated rat aortae": {"test_system": "isolated rat aortae", "assay": "Vasorelaxing effect on the isolated rat aortae (Referential Example 1)-1)", "conditions": "inhibition of contraction induced by 40 mM KCl", "protocol": "The compounds of the present invention were tested for their physiological activities by measuring the tension of isolated rat aortae isometrically.\nThoracic aortae obtained from male Wistar rats (weighing 250-350 g) were cut into ring segments about 3 mm long. The ring preparation was placed in an organ bath filled with 10 ml of Krebs-Ringer solution that was maintained at 37°C and gassed with 95% O₂ - 5% CO₂.\nThe preparation in the organ bath was allowed to equilibrate under resting tension of 1 g. After equilibration period, the solution in the organ bath was replaced with an isotonic solution containing 40 mM KCl to contract the preparation.\nAfter the contraction induced by KCl had reached plateau, the concentration-response relationship for the test compound was determined by means of cumulative addition.\nThe relaxation response of the test compounds was expressed as the percent inhibition of the contraction induced by KCl, and the IC₅₀ value, which is a concentration required for inhibiting the contraction induced by KCl to an extent of 50%, was calculated by the Probit method from the concentration-response curve."}}}
{"smiles": "N#CNC(=NCCO[N+](=O)[O-])c1cccnc1", "note": "[Compound (13), N-cyano-N'-(2-nitroxyethyl)-3-pyridinecarboximidamide]", "values": [{"measurement": "Increment of Efflux (%)", "setting": "potassium channel", "result": 213.53, "unit": "%"}, {"measurement": "Decreasing Rate of Blood Pressure (%)", "setting": "[1]; 0.3 mg/kg p.o.", "result": "6.76 ± 1.53", "unit": "%"}, {"measurement": "Decreasing Rate of Blood Pressure (%)", "setting": "[1]; 0.5 mg/kg p.o.", "result": "9.12 ± 2.41", "unit": "%"}, {"measurement": "Decreasing Rate of Blood Pressure (%)", "setting": "[1]; 1.0 mg/kg p.o.", "result": "27.31 ± 2.32", "unit": "%"}, {"measurement": "Decreasing Rate of Blood Pressure (%)", "setting": "[1]; 3.0 mg/kg p.o.", "result": "49.99 ± 2.48", "unit": "%"}, {"measurement": "Coronary Blood Flow", "setting": "beagles; i.v. 3.0 µg/kg", "result": "16.4±1.8", "unit": "%"}, {"measurement": "Heart Rate", "setting": "beagles; i.v. 3.0 µg/kg", "result": "1.3±1.4", "unit": "%"}, {"measurement": "Mean Aortic Blood Pressure", "setting": "beagles; i.v. 3.0 µg/kg", "result": "-15.3±2.5", "unit": "%"}, {"measurement": "Coronary Blood Flow", "setting": "beagles; i.v. 10.0 µg/kg", "result": "96.0±17.6", "unit": "%"}, {"measurement": "Heart Rate", "setting": "beagles; i.v. 10.0 µg/kg", "result": "-5.9±2.8", "unit": "%"}, {"measurement": "Mean Aortic Blood Pressure", "setting": "beagles; i.v. 10.0 µg/kg", "result": "-38.5±3.1", "unit": "%"}, {"measurement": "Coronary Blood Flow", "setting": "beagles; i.v. 30.0 µg/kg", "result": "134.1±9.2", "unit": "%"}, {"measurement": "Heart Rate", "setting": "beagles; i.v. 30.0 µg/kg", "result": "-16.2±3.3", "unit": "%"}, {"measurement": "Mean Aortic Blood Pressure", "setting": "beagles; i.v. 30.0 µg/kg", "result": "-50.7±2.1", "unit": "%"}, {"measurement": "IC50", "setting": "isolated rat aortae", "result": 5.1, "unit": "µM"}]}
